# Assay results: patent publication US12491246B2, “Combination therapy of arms and natural killer cells” (KLEO PHARMACEUTICALS, INC., priority 2018, dated 2025)
# What was measured:
# non-CIML NK cells = assay: NK cell fratricide assay, non-CIML control NK cells; format: cell-based; settings: 2 hr
# Method: (§1) PBMC isolation: Leukopheresis product from a donor with body mass index (BMI) between 19-25, under 50 years old, not on immuno-suppressive drugs for at least 2 weeks with an estimated PBMC cell count of >10^10 was obtained from Key Biologics (subject ID 20982200) and transported at ambient temperature. Leukopheresis bag was wiped down with 70% EtOH, a small slit was made and contents were pipetted off into tubes. Leukopak contents were diluted 1:1 with PBS without Ca++/Mg++ and 20 ml of this mixture was layered on top of 25 mL of Ficoll. Tubes were then centrifuged at 400 g for 30 minutes without brakes. PBMCs were harvested from the interface into separate tubes, and tubes were filled to 50 mL with PBS. Cells were centrifuged for 10 min at 120 g to get rid of platelets. Supernatant was poured off and cells were re-suspended in RPMI 10% FBS at a concentration of 7-10×10^6 cells/ml. Cells were cultured overnight at 37C in a 5% CO2 atmosphere until NK cell isolation.
# NK cell isolation: PBMC were centrifuged at 400 g for 10 min and re-suspended in EasySep buffer. NK cells were isolated using NK cell isolation kits from STEMCELL Technologies according to kit's manufacturers' instructions. NK cell purity and phenotype was assessed by trypan Blue and flow cytometry using the following antibody cocktail: anti-CD56PE, CD3 APC, and viability was determined using staining with Trypan Blue exclusion dye, and by flow cytometry using Near Infra-Red Fixable viability dye (Thermo Fisher). […]
# Purity and viability of NK cells and CIML NK cells: Among other things, the present disclosure provides highly pure and viable NK cell populations following isolation from PBMC. […] After an overnight incubation, purity and viability were assessed in the cultured cell populations. […]
# (§2) NK cell fratricide (death directed at NK cells in the same culture) was assessed by flow cytometry following a 2 hr incubation with the CD38 ARM at indicated concentrations in the presence or absence of 500 μg/ml intravenous immune globulin (IVIG). […]
# [1] = system: CD56+CD138− CIML NK cells; assay: NK cell fratricide in patient bone marrow co-incubation; format: cell-based, human; settings: co-incubated with patients bone marrow for 4 hrs; FIG. 4
# Method: Patient bone marrow (3 ml) and blood (20 ml) were shipped at ambient temperature from Discovery Biosciences. Bone marrow was diluted 1:1 with PBS, and 50 μl of bone marrow-PBS mixture was aliquoted into 96 deep well plates. Bone marrow cells were incubated overnight until CIML cells were added next day.
# PBMC were isolated from blood by Ficoll density gradient centrifugation. PBMC were centrifuged at 400 g for 10 min and re-suspended in EasySep buffer. NK cells were isolated using NK cell isolation kits from STEMCELL Technologies according to kit's manufacturers' instructions.
# NK cells were re-suspended at 1×10^6 cells/ml in XVIVO15, 10% Human Serum, IL-15 (50 ng/ml), IL-12 (10 ng/ml), IL-18(50 ng/ml), and incubated for 18 hrs. Following overnight incubation with cytokines, NK cells were washed twice with PBS 5% Human Serum Albumin, counted and re-suspended at a cell density of 2×10^5 cells/ml of XVIVO15 media. Twenty microliters (4000 cells) were added per each well containing 50 μl of bone marrow: PBS mixture. […]
# The assay was then incubated for 4 hrs. at 37° C. […] Finally, cells were re-suspended in 200 μl of FACS Buffer and analyzed using Attune Flow Cytometer. Data were analyzed using FlowJo software and graphed using GraphPad Prism. […]
# CIML NK cells = assay: CIML NK cell fratricide assay; format: cell-based
# Method: as §1
# NK cell isolation: PBMC were centrifuged at 400 g for 10 min and re-suspended in EasySep buffer. NK cells were isolated using NK cell isolation kits from STEMCELL Technologies according to kit's manufacturers' instructions. NK cell purity and phenotype was assessed by trypan Blue and flow cytometry using the following antibody cocktail: anti-CD56PE, CD3 APC, and viability was determined using staining with Trypan Blue exclusion dye, and by flow cytometry using Near Infra-Red Fixable viability dye (Thermo Fisher).
# CIML NK cell generation: Isolated NK cells were re-suspended at 2×10^6 cells/ml in XVIVO 10% Human Serum and the following concentrations IL-15 (50 ng/ml), IL-12 (10 ng/ml), IL-18(50 ng/ml) for 12 to 18 hrs. […]
# as §2
smiles,measurement,setting,value
CCCCC[C@@H]1NC(=O)[C@H](CCCNC(=N)N)NC(=O)[C@H](C)NC(=O)CSC[C@@H](C(=O)NCCOCCOCCOCCOCCOCCOCCn2nnc3c2CCC2C(CC3)C2COC(=O)N2CCC(C(=O)NCC(=O)N[C@H](CCC(=O)N[C@H](CCC(=O)N[C@H](CCC(=O)O)C(=O)N[C@H](CCC(=O)N[C@H](CCC(=O)NCC(=O)NCC(=O)N[C@@H](CC(=O)O)C(=O)N[C@H]3CSSC[C@@H](C(=O)N[C@H](C(=O)O)[C@@H](C)O)NC(=O)[C@H](Cc4c[nH]c5ccccc45)NC(=O)[C@H](C(C)C)NC(=O)[C@H](CC(C)C)NC(=O)[C@H](CCC(=O)O)NC(=O)CNC(=O)[C@H](CC(C)C)NC(=O)[C@H](Cc4c[nH]cn4)NC(=O)[C@H](Cc4c[nH]c5ccccc45)NC(=O)[C@H](C)NC3=O)C(=O)O)C(=O)O)C(=O)O)C(=O)O)CC2)NC(=O)[C@H](CC(=O)O)NC(=O)[C@H](CCCCC)NC(=O)[C@H](Cc2ccc(-c3ccccc3)cc2)NC(=O)[C@H](CC(C)C)NC(=O)[C@H](C(C)C)NC(=O)CNC(=O)[C@H](CC(=O)O)NC(=O)[C@H](Cc2c[nH]cn2)NC(=O)[C@H](Cc2ccc(O)cc2)NC1=O (some centres unmarked) [CD38 ARM],increase in dead NK cells,non-CIML NK cells; 25 uM vs DMSO control,1.7%
same,increase in dead NK cells,non-CIML NK cells; highest concentration with IVIG vs DMSO IVIG control,0.93%
same,frequencies of CD56+CD138− CIML NK cells (NK cell fratricide),[1],did not change
same,increase in the percentage of dead NK cells,"CIML NK cells; CIML NK cells, +/−IVIG, 2 hours post-incubation",no increase
same,NK cell fratricide (data normalized to DMSO treated control),"CIML NK cells; even the highest doses, FIG. 1 (B)",no apparent NK cell fratricide was detected
